Assay results reported in ChEMBL document CHEMBL1201862, “PubChem BioAssay data set” (2004).
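Values below derive from 48-hour exposures of cells grown in 96-well plates, with endpoints linearly interpolated between the two concentrations bracketing the appropriate inhibition level. Here, GI50 denotes the concentration required for 50% inhibition of growth.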 Active and inactive are the calls of the source. Rule as the data show it: active = GI50 up to about 1.1 µM and inactive = higher.

Key:
Assay in all cases: NCI anticancer screen, dose series, 48 h
MOLT-4 = tested on: MOLT-4
SR = tested on: SR
SK-MEL-2 = tested on: SK-MEL-2
DU-145 = tested on: DU-145
BT-549 = tested on: BT-549
CAKI-1 = tested on: CAKI-1
CCRF-CEM = tested on: CCRF-CEM
HCT-116 = tested on: HCT-116
SK-MEL-28 = tested on: SK-MEL-28
IGROV-1 = tested on: IGROV-1
SK-OV-3 = tested on: SK-OV-3
HCT-15 = tested on: HCT-15
SF-268 = tested on: SF-268
RXF 393 = tested on: RXF 393
U-251 = tested on: U-251
Malme-3M = tested on: Malme-3M
ACHN = tested on: ACHN
NCI-H23 = tested on: NCI-H23
OVCAR-5 = tested on: OVCAR-5
OVCAR-3 = tested on: OVCAR-3
SK-MEL-5 = tested on: SK-MEL-5
RPMI-8226 = tested on: RPMI-8226
UO-31 = tested on: UO-31
MCF7 = tested on: MCF7
HCC 2998 = tested on: HCC 2998
KM12 = tested on: KM12
786-0 = tested on: 786-0
SNB-19 = tested on: SNB-19
EKVX = tested on: EKVX
M14 = tested on: M14
NCI-H226 = tested on: NCI-H226
K562 = tested on: K562
OVCAR-4 = tested on: OVCAR-4
A549 = tested on: A549
UACC-62 = tested on: UACC-62
OVCAR-8 = tested on: OVCAR-8
SF-295 = tested on: SF-295
TK-10 = tested on: TK-10
UACC-257 = tested on: UACC-257
SF-539 = tested on: SF-539
MDA-MB-231 = tested on: MDA-MB-231
Hs-578T = tested on: Hs-578T
SN12C = tested on: SN12C
HOP-62 = tested on: HOP-62
MDA-N = tested on: MDA-N
HL-60 = tested on: HL-60
NCI/ADR-RES = tested on: NCI/ADR-RES
SNB-75 = tested on: SNB-75
SW-620 = tested on: SW-620
T47D = tested on: T47D
NCI-H460 = tested on: NCI-H460
HOP-92 = tested on: HOP-92
HT-29 = tested on: HT-29
NCI-H522 = tested on: NCI-H522
PC-3 = tested on: PC-3
A498 = tested on: A498
COLO 205 = tested on: COLO 205
LOX IMVI = tested on: LOX IMVI
MDA-MB-435 = tested on: MDA-MB-435

Measured: GI50

CCCCC1Cc2cc(O)ccc2-c2n1c1cc(O)ccc1[n+]2C.CCCCC1Cc2cc(O)ccc2-c2n1c1ccc(O)cc1[n+]2C (stereo not drawn)
active: U-251 1.1 µM | EKVX 0.476 µM
51.8 µM: HCT-15
inactive: MOLT-4 49.1 µM | SR 56.5 µM | SK-MEL-2 32.7 µM | DU-145 78.7 µM | BT-549 19 µM | CAKI-1 > 100 µM | CCRF-CEM 9.59 µM | HCT-116 36.9 µM | SK-MEL-28 6.64 µM | IGROV-1 25.9 µM | SK-OV-3 57.3 µM | SF-268 4.57 µM | RXF 393 34 µM | Malme-3M 19.5 µM | ACHN 56 µM | NCI-H23 2.59 µM | OVCAR-5 63.5 µM | OVCAR-3 10.7 µM | SK-MEL-5 4.05 µM | RPMI-8226 9.73 µM | UO-31 65.6 µM | MCF7 19 µM | HCC 2998 28.2 µM | KM12 28.2 µM | 786-0 26.5 µM | SNB-19 1.49 µM | M14 37.9 µM | NCI-H226 41 µM | K562 17.7 µM | OVCAR-4 27.7 µM | A549 22.9 µM | UACC-62 24.4 µM | OVCAR-8 28.3 µM | SF-295 4.82 µM | TK-10 22.1 µM | UACC-257 11.6 µM | SF-539 40.3 µM | MDA-MB-231 48 µM | Hs-578T 5.47 µM | SN12C 5.58 µM | HOP-62 43.8 µM | MDA-N 26.8 µM | HL-60 26.1 µM | NCI/ADR-RES > 100 µM | SNB-75 12.7 µM | SW-620 32.2 µM | T47D 22.3 µM | NCI-H460 37.9 µM | HOP-92 9.55 µM | HT-29 41.7 µM | NCI-H522 2.99 µM | PC-3 49.5 µM | A498 31.9 µM | COLO 205 18.3 µM | LOX IMVI 39 µM | MDA-MB-435 19 µM

COC1(C)CCC(OS(C)(=O)=O)CO1 (stereo not drawn)
> 100 µM: HCT-15
inactive: MOLT-4 > 100 µM | SR > 100 µM | SK-MEL-2 > 100 µM | DU-145 > 100 µM | BT-549 > 100 µM | CAKI-1 > 100 µM | CCRF-CEM > 100 µM | HCT-116 > 100 µM | SK-MEL-28 > 100 µM | IGROV-1 > 100 µM | SK-OV-3 > 100 µM | SF-268 > 100 µM | RXF 393 > 100 µM | U-251 > 100 µM | Malme-3M > 100 µM | ACHN > 100 µM | NCI-H23 > 100 µM | OVCAR-5 > 100 µM | OVCAR-3 > 100 µM | SK-MEL-5 > 100 µM | RPMI-8226 > 100 µM | UO-31 > 100 µM | MCF7 > 100 µM | HCC 2998 > 100 µM | KM12 > 100 µM | 786-0 > 100 µM | SNB-19 > 100 µM | EKVX > 100 µM | M14 > 100 µM | NCI-H226 > 100 µM | K562 > 100 µM | OVCAR-4 > 100 µM | A549 > 100 µM | UACC-62 > 100 µM | OVCAR-8 > 100 µM | SF-295 > 100 µM | TK-10 > 100 µM | UACC-257 > 100 µM | SF-539 > 100 µM | MDA-MB-231 > 100 µM | Hs-578T > 100 µM | SN12C > 100 µM | HOP-62 > 100 µM | MDA-N > 100 µM | HL-60 > 100 µM | NCI/ADR-RES > 100 µM | SNB-75 > 100 µM | SW-620 > 100 µM | T47D > 100 µM | NCI-H460 > 100 µM | HOP-92 > 100 µM | HT-29 > 100 µM | NCI-H522 > 100 µM | PC-3 > 100 µM | A498 > 100 µM | COLO 205 > 100 µM | LOX IMVI > 100 µM | MDA-MB-435 > 100 µM
